From PubChem BioAssay (NCI)
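Dose response: 5 concentrations. Exposure: 48 h. Format: 96-well plates. Endpoint: linear interpolation; highest concentration if not reached. GI50: concentration for 50% inhibition of growth. At the TGI there is no net growth.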

Tests used:
Assay in all cases: DTP human tumour cell line panel, 48 h
CCRF-CEM leukemia = test system: CCRF-CEM leukemia
SK-MEL-2 melanoma = test system: SK-MEL-2 melanoma
MCF7 breast = test system: MCF7 breast
MALME-3M melanoma = test system: MALME-3M melanoma
786-0 renal = test system: 786-0 renal
HOP-62 NSCLC = test system: HOP-62 NSCLC
RXF 393 renal = test system: RXF 393 renal
SF-539 CNS = test system: SF-539 CNS
LOX IMVI melanoma = test system: LOX IMVI melanoma
SN12C renal = test system: SN12C renal
SF-268 CNS = test system: SF-268 CNS
T-47D breast = test system: T-47D breast
UACC-257 melanoma = test system: UACC-257 melanoma
BT-549 breast = test system: BT-549 breast
NCI-H23 lung = test system: NCI-H23 lung
UO-31 renal = test system: UO-31 renal
MDA-MB-231 breast = test system: MDA-MB-231 breast
CAKI-1 renal = test system: CAKI-1 renal
SNB-19 CNS = test system: SNB-19 CNS
HS 578T breast = test system: HS 578T breast
MDA-MB-435 = test system: MDA-MB-435
EKVX NSCLC = test system: EKVX NSCLC
MDA-MB-468 breast = test system: MDA-MB-468 breast
OVCAR-5 ovarian = test system: OVCAR-5 ovarian
NCI/ADR-RES ovarian = test system: NCI/ADR-RES ovarian
HCT-15 colon = test system: HCT-15 colon

**Q.** Which GI50 (CCRF-CEM leukemia) does the source give for CCN1CCN(Cc2ccc(C(=O)Nc3cccc(C#Cc4cccc5[nH]nc(N)c45)c3)cc2C(F)(F)F)CC1 here?
**A.** 1600 nM

**Q.** And the TGI (CCRF-CEM leukemia)?
**A.** 3620 nM

**Q.** What about the GI50 (SK-MEL-2 melanoma) of the same compound?
**A.** 1470 nM

**Q.** And the TGI (SK-MEL-2 melanoma)?
**A.** 2930 nM

**Q.** And the GI50 (MCF7 breast)?
**A.** 1610 nM

**Q.** And the TGI (MCF7 breast)?
**A.** 3050 nM

**Q.** And the GI50 (MALME-3M melanoma)?
**A.** 509 nM

**Q.** And the TGI (MALME-3M melanoma)?
**A.** 1820 nM

**Q.** What about the GI50 (786-0 renal) of the same compound?
**A.** 1470 nM

**Q.** And the TGI (786-0 renal)?
**A.** 2840 nM

**Q.** What about the GI50 (HOP-62 NSCLC) of the same compound?
**A.** 1730 nM

**Q.** What about the TGI (HOP-62 NSCLC) of the same compound?
**A.** 3640 nM

**Q.** What about the GI50 (RXF 393 renal) of the same compound?
**A.** 1100 nM

**Q.** What about the TGI (RXF 393 renal) of the same compound?
**A.** 2490 nM

**Q.** And the GI50 (SF-539 CNS)?
**A.** 533 nM

**Q.** What about the TGI (SF-539 CNS) of the same compound?
**A.** 1760 nM

**Q.** What about the GI50 (LOX IMVI melanoma) of the same compound?
**A.** 739 nM

**Q.** What about the TGI (LOX IMVI melanoma) of the same compound?
**A.** 1990 nM

**Q.** What about the GI50 (SN12C renal) of the same compound?
**A.** 1180 nM

**Q.** What about the TGI (SN12C renal) of the same compound?
**A.** 2480 nM

**Q.** And the GI50 (SF-268 CNS)?
**A.** 1430 nM

**Q.** And the TGI (SF-268 CNS)?
**A.** 3330 nM

**Q.** And the GI50 (T-47D breast)?
**A.** 2250 nM

**Q.** What about the TGI (T-47D breast) of the same compound?
**A.** 6180 nM

**Q.** What about the GI50 (UACC-257 melanoma) of the same compound?
**A.** 1470 nM

**Q.** What about the TGI (UACC-257 melanoma) of the same compound?
**A.** 2860 nM

**Q.** What about the GI50 (BT-549 breast) of the same compound?
**A.** 1640 nM

**Q.** And the TGI (BT-549 breast)?
**A.** 3060 nM

**Q.** And the GI50 (NCI-H23 lung)?
**A.** 1410 nM

**Q.** And the TGI (NCI-H23 lung)?
**A.** 2760 nM

**Q.** And the GI50 (UO-31 renal)?
**A.** 1430 nM

**Q.** And the TGI (UO-31 renal)?
**A.** 2930 nM

**Q.** And the GI50 (MDA-MB-231 breast)?
**A.** 919 nM

**Q.** And the TGI (MDA-MB-231 breast)?
**A.** 2140 nM

**Q.** What about the GI50 (CAKI-1 renal) of the same compound?
**A.** 1450 nM

**Q.** And the TGI (CAKI-1 renal)?
**A.** 2780 nM

**Q.** And the GI50 (SNB-19 CNS)?
**A.** 1950 nM

**Q.** And the TGI (SNB-19 CNS)?
**A.** 3630 nM

**Q.** And the GI50 (HS 578T breast)?
**A.** 2140 nM

**Q.** And the TGI (HS 578T breast)?
**A.** 6680 nM

**Q.** And the GI50 (MDA-MB-435)?
**A.** 1230 nM

**Q.** What about the TGI (MDA-MB-435) of the same compound?
**A.** 2500 nM

**Q.** What about the GI50 (EKVX NSCLC) of the same compound?
**A.** 1350 nM

**Q.** And the TGI (EKVX NSCLC)?
**A.** 2790 nM

**Q.** What about the GI50 (MDA-MB-468 breast) of the same compound?
**A.** 1030 nM

**Q.** And the TGI (MDA-MB-468 breast)?
**A.** 2320 nM

**Q.** What about the GI50 (OVCAR-5 ovarian) of the same compound?
**A.** 1470 nM

**Q.** And the TGI (OVCAR-5 ovarian)?
**A.** 3030 nM

**Q.** What about the GI50 (NCI/ADR-RES ovarian) of the same compound?
**A.** 1800 nM

**Q.** What about the TGI (NCI/ADR-RES ovarian) of the same compound?
**A.** 4040 nM

**Q.** What about the GI50 (HCT-15 colon) of the same compound?
**A.** 721 nM
